Test results reported in patent publication US7273862B2, “Aminoalkyl substituted (benzodioxan, benzofuran or benzopyran) derivatives” (Janssen Pharmaceutica N.V., priority 1999, dated 2007).
Counter-ions that a name gives are not always drawn.

How the values were obtained:
[1] = test system: fundus of the stomach (gastric tone) in conscious dogs; assay: Gastric tone measured by an electronic barostat in conscious dogs; format: in vivo, beagle dogs; conditions: I.D. administration, 0.63 mg/kg, 1 hour observation period, constant pressure of 6 mmHg
From the text: C. Pharmacological Examples C.1. Gastric Tone Measured by an Electronic Barostat in Conscious Dogs
Gastric tone cannot be measured by manometric methods. Therefore an electronic barostat was used. This allows the study of the physiological pattern and regulation of gastric tone in conscious dogs and the influence of test-compounds on this tone.
The barostat consists of an air injection system which is connected by a double-lumen 14-French polyvinyl tube to an ultrathin flaccid polyethylene bag (maximal volume:±700 ml). Variations in gastric tone were measured by recording changes in the volume of air within an intragastric bag, maintained at a constant pressure. The barostat maintains a constant pressure (preselected) within a flaccid air-filled bag introduced into the stomach, changing the volume of air within the bag by an electronic feedback system.
Thus, the barostat measures gastric motor activity (contraction or relaxation) as changes in intragastric volume (decrease or increase resp.) at a constant intragastric pressure. […]
When during a stabilisation period of maximum 90 minutes, the gastric volume is stable during 15 minutes at a constant pressure of 6 mmHg (about 0.81 kPa), the test compound was administered subcutaneously (S.C.), or intraduodenally (I.D.). Test compounds were screened, i.e. changes in gastric volume were measured, usually at 0.63 mg/kg. […]

## O=C1NCCCN1CC(O)CNCC(O)C1CCc2ccccc2O1 (centres unmarked) (as salt: hydrochloride) (hydrate or solvate) [Compound 15, [S(A)]-1-[3-[[2-(3,4-dihydro-2H-1-benzopyran-2-yl)-2-hydroxyethyl]amino]-2-hydroxypropyl]tetrahydro-2(1H)-pyrimidinone monohydrochloride dihydrate]
other
  melting point: 138 °C

## O=C1NCCCN1CC(O)CNCC(O)C1CCc2ccccc2O1 (centres unmarked) [Compound 15, [S(A)]-1-[3-[[2-(3,4-dihydro-2H-1-benzopyran-2-yl)-2-hydroxyethyl]amino]-2-hydroxypropyl]tetrahydro-2(1H)-pyrimidinone monohydrochloride dihydrate]
[1]
  Maximum change in volume (mean maximal change in volume on relaxation of the fundus): 5 mL
